Experimental data taken from the NIST ThermoML archive (doi:10.1021/je060271a).

Conditions: 323.15 K, Liquid, Vibrating tube method

CCCCCCCC(=O)OCC(COC(=O)CCCCCCC)(COC(=O)CCCCCCC)COC(=O)CCCCCCC [pentaerythritol tetraoctanoate]
Conditions	mass density [kg/m3]
16301 kPa	951.3
16330 kPa	951.2
16376 kPa	951.3
16399 kPa	951.4
16422 kPa	951.4
16451 kPa	951.3
16486 kPa	951.5
16514 kPa	951.3
16560 kPa	951.4
16590 kPa	951.6
16619 kPa	951.6
16654 kPa	951.5
16683 kPa	951.5
16714 kPa	951.6
16744 kPa	951.6
16780 kPa	951.7
16810 kPa	951.5
16846 kPa	951.5
16876 kPa	951.7
16907 kPa	951.6
16937 kPa	951.7
16974 kPa	951.6
17005 kPa	951.8
17037 kPa	951.9
17074 kPa	951.8
17106 kPa	951.8
17140 kPa	951.8
17172 kPa	951.9
17203 kPa	951.8
17241 kPa	951.9
17266 kPa	951.9
17311 kPa	951.8
17344 kPa	951.9
17376 kPa	951.9
17414 kPa	952
17448 kPa	951.9
17480 kPa	952
17513 kPa	951.9
17554 kPa	952
17583 kPa	952.2
17622 kPa	952.1
17656 kPa	952.1
17696 kPa	952.2
17730 kPa	952.1
17763 kPa	952.1
17797 kPa	952.3
17838 kPa	952.3
17872 kPa	952.2
17907 kPa	952.2
17948 kPa	952.3
17984 kPa	952.3
18019 kPa	952.4
18055 kPa	952.5
18097 kPa	952.4
18132 kPa	952.3
18168 kPa	952.3
18210 kPa	952.5
18246 kPa	952.5
18282 kPa	952.4
18325 kPa	952.6
18361 kPa	952.5
18398 kPa	952.7
18442 kPa	952.6
18479 kPa	952.7
18516 kPa	952.6
18554 kPa	952.7
18599 kPa	952.7
18637 kPa	952.7
18682 kPa	952.7
18720 kPa	952.8
18758 kPa	952.8
18796 kPa	952.7
18843 kPa	952.9
18882 kPa	952.8
18922 kPa	952.9
18970 kPa	953
19012 kPa	953
19056 kPa	953
19097 kPa	953
19139 kPa	953.1
19166 kPa	952.9
19197 kPa	953.2
19223 kPa	953.1
19250 kPa	953.1
19282 kPa	953
19308 kPa	953.1
19341 kPa	953.3
19368 kPa	953.2
19395 kPa	953.2
19422 kPa	953.3
19456 kPa	953.2
19483 kPa	953.2
19511 kPa	953.2
19543 kPa	953.4
19571 kPa	953.3
19603 kPa	953.2
19632 kPa	953.3
19660 kPa	953.4
19688 kPa	953.4
19722 kPa	953.4
19750 kPa	953.4
19778 kPa	953.4
19812 kPa	953.4
19842 kPa	953.6
19871 kPa	953.4
19905 kPa	953.5
19934 kPa	953.4
19962 kPa	953.5
19997 kPa	953.5
20055 kPa	953.4
20090 kPa	953.6
20119 kPa	953.6
20149 kPa	953.7
20185 kPa	953.7
20216 kPa	953.7
20246 kPa	953.7
20276 kPa	953.7
20307 kPa	953.8
20343 kPa	953.7
20373 kPa	953.7
20404 kPa	953.7
20441 kPa	953.8
20471 kPa	953.8
20502 kPa	953.9
20538 kPa	953.8
20570 kPa	954
20601 kPa	953.9
20634 kPa	954
20667 kPa	954
20705 kPa	954
20736 kPa	954
20767 kPa	954
20805 kPa	954.1
20836 kPa	954.1
20868 kPa	954
20906 kPa	954
20938 kPa	954.2
20970 kPa	954.1
21008 kPa	954.2
21041 kPa	954.1
21074 kPa	954.1
21107 kPa	954.2
21146 kPa	954.2
21178 kPa	954.1
21218 kPa	954.3
21251 kPa	954.4
21284 kPa	954.4
21324 kPa	954.4
21358 kPa	954.4
21391 kPa	954.4
21431 kPa	954.4
21466 kPa	954.4
21500 kPa	954.5
21542 kPa	954.5
21576 kPa	954.5
21604 kPa	954.5
21646 kPa	954.4
21680 kPa	954.7
21722 kPa	954.6
21756 kPa	954.6
21798 kPa	954.5
21832 kPa	954.6
21946 kPa	954.8
21982 kPa	954.6
22025 kPa	954.7
22061 kPa	954.8
22097 kPa	954.7
22134 kPa	954.9
22178 kPa	954.9
22215 kPa	954.9
22259 kPa	954.9
22295 kPa	955
22325 kPa	954.9
22369 kPa	954.9
22414 kPa	955
22451 kPa	955.1
22490 kPa	955.1
22537 kPa	955.1
22576 kPa	955
22616 kPa	955.2
22664 kPa	955.1
22705 kPa	955.3
22743 kPa	955.2
22780 kPa	955.2
22834 kPa	955.5
22861 kPa	955.3
22894 kPa	955.3
22922 kPa	955.3
22950 kPa	955.3
22983 kPa	955.3
23011 kPa	955.4
23038 kPa	955.4
23066 kPa	955.4
23100 kPa	955.3
23127 kPa	955.5
23161 kPa	955.5
23189 kPa	955.5
23217 kPa	955.6
23250 kPa	955.5
23279 kPa	955.6
23308 kPa	955.5
23344 kPa	955.5
23372 kPa	955.7
23400 kPa	955.5
23429 kPa	955.7
23464 kPa	955.7
23492 kPa	955.6
23521 kPa	955.6
23556 kPa	955.6
23585 kPa	955.8
23614 kPa	955.8
23649 kPa	955.8
23679 kPa	955.8
23709 kPa	955.9
23740 kPa	955.8
23769 kPa	955.8
23804 kPa	955.8
23834 kPa	955.8
23869 kPa	955.8
23899 kPa	955.9
23929 kPa	955.9
23965 kPa	955.9
23995 kPa	955.9
24025 kPa	955.9
24062 kPa	956
24092 kPa	955.9
24124 kPa	955.9
24161 kPa	956
24191 kPa	956.2
24223 kPa	956.1
24260 kPa	956.1
24291 kPa	956
24322 kPa	956.2
24354 kPa	956.1
24391 kPa	956.2
24422 kPa	956.1
24460 kPa	956.2
24491 kPa	956.3
24523 kPa	956.3
24562 kPa	956.3
24594 kPa	956.3
24626 kPa	956.3
24658 kPa	956.4
24696 kPa	956.4
24728 kPa	956.4
24766 kPa	956.4
24799 kPa	956.4
24832 kPa	956.5
24871 kPa	956.5
24903 kPa	956.5
24936 kPa	956.6
24976 kPa	956.5
25008 kPa	956.6
25042 kPa	956.6
25075 kPa	956.5
25115 kPa	956.5
25149 kPa	956.7
25188 kPa	956.6
25222 kPa	956.6
25256 kPa	956.7
25290 kPa	956.7
25330 kPa	956.6
25364 kPa	956.7
25398 kPa	956.8
25439 kPa	956.8
25474 kPa	956.8
25509 kPa	956.8
25550 kPa	956.8
25584 kPa	957
25619 kPa	956.9
25654 kPa	957
25695 kPa	957
25729 kPa	956.9
25771 kPa	957
25806 kPa	957.1
25842 kPa	957.1
25878 kPa	957.1
25920 kPa	957.1
25957 kPa	957
25993 kPa	957.2
26028 kPa	957.1
26071 kPa	957.1
26107 kPa	957.1
26150 kPa	957.2
26186 kPa	957.2
26223 kPa	957.3
26259 kPa	957.3
26303 kPa	957.3
26340 kPa	957.2
26384 kPa	957.3
26421 kPa	957.5
26460 kPa	957.3
26498 kPa	957.4
26535 kPa	957.4
26579 kPa	957.5
